Laboratory results from US12516046B2, “2-oxo-oxazolidine-5-carboxamides as NAV1.8 inhibitors” (Merck Sharp & Dohme LLC, priority 2020, dated 2026).

Each molecule was assayed against human Nav1.8 (Homo sapiens (Human), UniProt Q9Y5Y9) (assay: Nav1.8 Qube® Assay (automated 384-well patch-clamp)). Details: human Nav1.8 channels stably expressed in HEK 293 cells.
Format: cell-based
Description: Qube® Assay Experimental Procedure

Chain of human Nav1.8 (Q9Y5Y9 whole entry): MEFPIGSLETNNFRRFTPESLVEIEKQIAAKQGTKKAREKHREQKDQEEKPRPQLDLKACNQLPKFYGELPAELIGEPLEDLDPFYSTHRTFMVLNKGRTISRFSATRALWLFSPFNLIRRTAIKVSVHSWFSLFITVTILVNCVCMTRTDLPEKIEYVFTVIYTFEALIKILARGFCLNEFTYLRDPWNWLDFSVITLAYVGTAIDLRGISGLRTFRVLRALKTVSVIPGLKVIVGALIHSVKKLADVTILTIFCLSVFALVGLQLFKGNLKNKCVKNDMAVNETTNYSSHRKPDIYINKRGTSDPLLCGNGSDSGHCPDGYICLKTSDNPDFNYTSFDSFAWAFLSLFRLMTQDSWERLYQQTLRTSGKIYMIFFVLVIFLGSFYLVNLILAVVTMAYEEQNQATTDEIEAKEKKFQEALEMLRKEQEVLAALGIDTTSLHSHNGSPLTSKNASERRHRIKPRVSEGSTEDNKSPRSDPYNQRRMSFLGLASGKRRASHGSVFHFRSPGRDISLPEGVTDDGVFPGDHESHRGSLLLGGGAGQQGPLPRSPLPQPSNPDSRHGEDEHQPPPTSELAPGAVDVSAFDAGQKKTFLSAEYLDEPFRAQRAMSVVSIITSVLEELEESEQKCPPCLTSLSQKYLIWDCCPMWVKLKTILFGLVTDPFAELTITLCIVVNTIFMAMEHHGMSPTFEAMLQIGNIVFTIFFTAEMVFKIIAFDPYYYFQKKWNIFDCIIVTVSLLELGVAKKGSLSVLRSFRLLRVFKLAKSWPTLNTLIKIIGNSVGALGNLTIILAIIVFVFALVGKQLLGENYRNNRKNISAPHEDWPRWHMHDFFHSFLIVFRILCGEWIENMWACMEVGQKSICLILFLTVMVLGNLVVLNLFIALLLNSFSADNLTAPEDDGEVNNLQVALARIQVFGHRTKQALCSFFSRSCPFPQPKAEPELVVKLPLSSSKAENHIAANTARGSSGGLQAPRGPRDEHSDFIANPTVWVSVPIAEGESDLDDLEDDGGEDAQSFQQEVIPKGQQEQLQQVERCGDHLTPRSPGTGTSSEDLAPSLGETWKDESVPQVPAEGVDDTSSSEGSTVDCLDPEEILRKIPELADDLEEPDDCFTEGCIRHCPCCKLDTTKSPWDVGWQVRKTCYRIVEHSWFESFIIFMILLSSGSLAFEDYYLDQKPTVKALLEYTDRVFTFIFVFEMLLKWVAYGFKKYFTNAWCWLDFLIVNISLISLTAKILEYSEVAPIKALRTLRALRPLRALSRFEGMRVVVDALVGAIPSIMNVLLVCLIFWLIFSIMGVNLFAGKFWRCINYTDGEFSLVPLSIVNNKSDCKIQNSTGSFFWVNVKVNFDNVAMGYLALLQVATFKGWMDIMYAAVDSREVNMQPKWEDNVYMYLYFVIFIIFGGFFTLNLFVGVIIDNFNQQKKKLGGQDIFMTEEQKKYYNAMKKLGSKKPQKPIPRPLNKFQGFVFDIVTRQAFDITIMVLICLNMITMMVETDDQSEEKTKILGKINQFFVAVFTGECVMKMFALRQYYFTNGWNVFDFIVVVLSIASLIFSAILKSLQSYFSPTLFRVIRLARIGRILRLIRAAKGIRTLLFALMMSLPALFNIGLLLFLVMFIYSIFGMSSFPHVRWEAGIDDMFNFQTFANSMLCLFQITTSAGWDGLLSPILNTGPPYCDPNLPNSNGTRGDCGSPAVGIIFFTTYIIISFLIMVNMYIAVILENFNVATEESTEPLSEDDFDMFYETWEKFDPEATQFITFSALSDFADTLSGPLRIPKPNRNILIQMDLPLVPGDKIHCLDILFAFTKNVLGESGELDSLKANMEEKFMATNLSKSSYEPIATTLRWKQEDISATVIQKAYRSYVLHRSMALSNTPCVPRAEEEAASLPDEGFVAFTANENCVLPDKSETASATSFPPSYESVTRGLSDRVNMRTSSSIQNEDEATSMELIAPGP

SMILES	IC50 [nM]
O=C1NC[C@@H](C(=O)NC(c2ccc(Cl)cc2)c2ccc(Cl)cc2OC(F)(F)F)O1 (single isomer, unassigned) [Example 47A, (S)-N-((R or S)-(4-chloro-2-(trifluoromethoxy)phenyl)(4-chlorophenyl)methyl)-2-oxooxazolidine-5-carboxamide]	1.6
O=C1NC[C@@H](C(=O)NC(c2ccc(OC(F)(F)F)c(Cl)c2)c2coc(C(F)(F)F)n2)O1 (single isomer, unassigned) [Example 51A, (S)-N-((R or S)-(3-chloro-4-(trifluoro-methoxy)phenyl)(2-(trifluoromethyl)oxazol-4-yl)methyl)-2-oxooxazolidine-5-carboxamide]	5.3
O=C1NC[C@@H](C(=O)NC(c2ccc(Cl)cc2)c2nc(C(F)(F)F)cs2)O1 (single isomer, unassigned) [Example 12A, (S)-N-((R or S)-(4-chlorophenyl)(4-(trifluoromethyl)thiazol-2-yl)methyl)-2-oxooxazolidine-5-carboxamide]	16
O=C1NC[C@@H](C(=O)NC(COc2ccc(F)c(Cl)c2)c2ccc(F)c(Cl)c2)O1 (single isomer, unassigned) [Example 8B, (S)—N—((R or S)-2-(3-chloro-4-fluorophenoxy)-1-(3-chloro-4-fluorophenyl)ethyl)-2-oxooxazolidine-5-carboxamide]	4.6
O=C1NC[C@@H](C(=O)NC(c2ccc(Cl)cc2)C23C4C5C6C4C2C6C53)O1 (single isomer, unassigned) [Example 56A, (S)—N—((R or S)-(4-chlorophenyl)(cuban-1-yl)methyl)-2-oxooxazolidine-5-carboxamide]	229
O=C1NC[C@@H](C(=O)NC(c2ccc(Cl)cc2)c2ccc(Cl)c(C(F)(F)F)c2)O1 (single isomer, unassigned) [Example 35A, (S)-N-((R or S)-(4-chloro-3-(trifluoromethyl)phenyl)(4-chlorophenyl)methyl)-2-oxooxazolidine-5-carboxamide]	0.4
O=C1NC[C@@H](C(=O)NC(c2ccc(OC(F)(F)F)c(Cl)c2)c2ccnc(C(F)(F)F)n2)O1 (single isomer, unassigned) [Example 52A, (S)-N-((R or S)-(3-chloro-4-(trifluoromethoxy)phenyl)(2-(trifluoro-methyl)pyrimidin-4-yl)methyl)-2-oxooxazolidine-5-carboxamide]	7.9
N#Cc1ccc(C(NC(=O)[C@@H]2CNC(=O)O2)c2cnc(C(F)(F)F)c(Cl)c2)cc1Cl (single isomer, unassigned) [Example 54A, (S)-N-((R or S)-(3-chloro-4-cyano-phenyl)(5-chloro-6-(trifluoromethyl)pyridin-3-yl)methyl)-2-oxooxazolidine-5-carboxamide]	1.7
O=C1NC[C@@H](C(=O)NC(c2ccc(Cl)cc2)C2CCN(CC(F)(F)F)CC2)O1 (single isomer, unassigned) [Example 42A, (S)-N-((R or S)-(4-chlorophenyl)(1-(2,2,2-trifluoroethyl)piperidin-4-yl)methyl)-2-oxooxazolidine-5-carboxamide]	936
COc1ccc(Cl)cc1C(NC(=O)[C@@H]1CNC(=O)O1)c1cccc(Cl)c1 (single isomer, unassigned) [Example 28B, (S)-N-((R or S)-(5-chloro-2-methoxyphenyl)(3-chlorophenyl)methyl)-2-oxooxazolidine-5-carboxamide]	8.4
O=C1NC[C@@H](C(=O)NC(c2ccc(F)c(Cl)c2F)[C@@H]2CC[C@@H](C(F)(F)F)CO2)O1 (single isomer, unassigned) [Example 9A]	7.3
Cn1nc(C(F)(F)F)cc1C(NC(=O)[C@@H]1CNC(=O)O1)c1ccc(F)c(Cl)c1 (single isomer, unassigned) [Example 61B, (S)-N-((R or S)-(3-chloro-4-fluorophenyl)(1-methyl-3-(trifluoromethyl)-1H-pyrazol-5-yl)methyl)-2-oxooxazolidine-5-carboxamide]	231
O=C1NC[C@@H](C(=O)NC(c2ccc(Cl)cc2)C2CCC(F)(F)C2)O1 (single isomer, unassigned) [Example 57A, (S)-N-((R or S)-(4-chlorophenyl)((R or S)-3,3-difluorocyclopentyl)methyl)-2-oxooxazolidine-5-carboxamide]	3450
O=C1NC[C@@H](C(=O)NC(CC2CCCCC2)c2ccc(F)c(Cl)c2F)O1 (stereo partly drawn) [Example 67, (S)-N-(1-(3-chloro-2,4-difluorophenyl)-2-cyclohexylethyl)-2-oxooxazolidine-5-carboxamide]	21
O=C1NC[C@@H](C(=O)NC(c2ccc(Cl)cc2)C2CCC(F)(F)C2)O1 (single isomer, unassigned) [Example 57B, (S)-N-((R or S)-(4-chlorophenyl)((R or S)-3,3-difluorocyclopentyl)methyl)-2-oxooxazolidine-5-carboxamide]	5720
O=C1NC[C@@H](C(=O)NC(c2ccc(Cl)cc2)c2ccc(C(F)(F)F)cn2)O1 (single isomer, unassigned) [Example 37B, (S)-N-((R or S)-(4-chlorophenyl)(5-(trifluoromethyl)pyridin-2-yl)methyl)-2-oxooxazolidine-5-carboxamide]	26
O=C1NC[C@@H](C(=O)NC(c2ccc(Cl)cc2)c2ccc(Cl)c(C(F)(F)F)n2)O1 (single isomer, unassigned) [Example 2B, (S)—N—((R or S)-(5-chloro-6-(trifluoromethyl)pyridin-2-yl)(4-chlorophenyl)methyl)-2-oxooxazolidine-5-carboxamide]	30
O=C1NC[C@@H](C(=O)NC(c2ccc(F)c(Cl)c2)c2ccn(C(F)F)n2)O1 (single isomer, unassigned) [Example 60B, (S)-N-((R or S)-(3-chloro-4-fluorophenyl)(1-(difluoromethyl)-1H-pyrazol-3-yl)methyl)-2-oxooxazolidine-5-carboxamide]	124
Cc1cc(C(NC(=O)[C@@H]2CNC(=O)O2)c2ccc(Cl)cc2)ccc1Cl (single isomer, unassigned) [Example 46A, (S)-N-((R or S)-(4-chloro-3-methylphenyl)(4-chlorophenyl)methyl)-2-oxooxazolidine-5-carboxamide]	0.6
O=C1NC[C@@H](C(=O)NC(CCc2ccc(Cl)cc2)c2ccc(F)c(Cl)c2F)O1 (single isomer, unassigned) [Example 65B, (S)—N—((R or S)-1-(3-chloro-2,4-difluorophenyl)-3-(4-chlorophenyl)propyl)-2-oxooxazolidine-5-carboxamide]	11
O=C1NC[C@@H](C(=O)NC(c2cccc(Cl)c2)C2CC2c2ccccc2)O1 (single isomer, unassigned) [Example 26A, (5S)-N-((R or S)-(3-chlorophenyl) ((cis or trans)-2-phenylcyclopropyl)methyl)-2-oxooxazolidine-5-carboxamide]	326
CC(C)(C)c1csc(C(NC(=O)[C@@H]2CNC(=O)O2)c2ccc(Cl)cc2)n1 (single isomer, unassigned) [Example 39A, (S)-N-((R or S)-(4-(tert-butyl)thiazol-2-yl)(4-chlorophenyl)methyl)-2-oxooxazolidine-5-carboxamide]	5.1
O=C1NC[C@@H](C(=O)NC(c2ccc(F)c(Cl)c2F)[C@@H]2CC[C@@H](C(F)(F)F)CO2)O1 (single isomer, unassigned) [Example 9C]	356
